The source of these data is patent US20250066358A1, “Inhibitors of Menin-MLL Interaction” (Bala Therapeutics, Inc., priority 2021, published 2025).

Bounds are passed on as bounds.

Broadly, the EC50 is the concentration that produces a half-maximal response. A word on the CC50: it is the concentration at which the toxic effect on the cells reaches its halfway point.

The target of series [1] is T1, recombinant MEN1 protein and fluorescein-labeled MLL4-43 peptide (Homo sapiens, UniProt O00255).
T1 construct: purchased Creativebiomart MEN1-35H
T1 sequence (O00255 1-610): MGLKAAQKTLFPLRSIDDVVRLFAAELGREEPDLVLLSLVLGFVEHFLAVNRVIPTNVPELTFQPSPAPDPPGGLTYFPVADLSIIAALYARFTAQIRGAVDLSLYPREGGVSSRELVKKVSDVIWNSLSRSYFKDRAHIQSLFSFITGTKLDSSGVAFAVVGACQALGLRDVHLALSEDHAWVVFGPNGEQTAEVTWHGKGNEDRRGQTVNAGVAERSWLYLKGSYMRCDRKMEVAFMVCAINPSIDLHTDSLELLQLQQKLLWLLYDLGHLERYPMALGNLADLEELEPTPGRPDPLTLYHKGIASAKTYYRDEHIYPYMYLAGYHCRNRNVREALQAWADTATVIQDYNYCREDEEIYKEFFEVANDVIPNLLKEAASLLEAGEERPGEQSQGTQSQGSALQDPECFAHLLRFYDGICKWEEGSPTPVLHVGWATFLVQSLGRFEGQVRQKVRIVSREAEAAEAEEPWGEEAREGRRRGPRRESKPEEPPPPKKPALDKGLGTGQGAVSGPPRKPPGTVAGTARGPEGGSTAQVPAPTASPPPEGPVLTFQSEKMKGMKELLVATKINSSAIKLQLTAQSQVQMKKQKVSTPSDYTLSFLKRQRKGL
Put plainly: Primary fluorescence polarization assay of MEN1 / MLL4-43 interaction inhibition. It counts as binding. To be noted: MEN1 10 nM, MLL4-43 0.5 nM, 1 hour at room temperature. Here is the method:
Compound activity was determined using recombinant MEN1 protein (Creativebiomart, Cat #MEN1-35H) and a custom fluorescein-labeled MLL4-43 peptide (Eton Bioscience Inc.). Interaction between MEN1 and MLL4-43 in the presence of compounds was determined by fluorescence polarization assay using a Microplate Reader ClarioStar Plus. The reaction was carried out in assay buffer (50 mM TRIS-HCl PH 7.4-7.6, 50 mM NaCl, 1 mM DTT, 0.1 mg/ml BSA). The compounds were dispensed on a 384 well Diamond Well Plate (Axigen, Cat #P-384-120 SQ-C—S) using the Biomek FX liquid handling system at 100× solutions of compounds in DMSO. 2× MEN1 mix (final concentration of MEN1 10 nM) was prepared in Assay buffer and 10 μl of mixture per well was added into 384w white Reaction plate with NBS(Corning, Cat #4513). 10 μl of Assay buffer w/o MENI was used for negative control. Plates were centrifuged for 1 min at 100 g. Next step the Compounds were added to Reaction plate using Biomek station via following steps: 3 μl of 100× compounds (in DMSO) were mixed thoroughly with 27 μl Assay Buffer, then 2 μl of this mixture was added to Reaction plate with 10 μl of MENI mix. Plates were centrifuged for 1 min at 100 g and incubated for 20 min at room temperature. Next 8 μL of MLL4-43 peptide per well was added to final concentration of MLL 0.5 nM. Plates were incubated for 1 hour at room temperature. Then fluorescence polarization was measured using Microplate Reader.

In the next series the test system is MV4-11. Put plainly: MV4-11 Cellular Growth Inhibition Assay (CellTiter-Glo). It counts as cell-based. To be noted: Homo sapiens, 168 h, MV4-11 cells, 7 days of incubation. Here is the method: (§1) HEK293 (Institute of Cytology Russian Academy of Science), MV4-11 (ATCC, CRL-9591), MOLM-13 (AcceGen, ABC-TC517S) were seeded at a density of 500 cells per well (HEK293) and 2000 cells per well (MV4-11, MOLM-13) in a 384-well clear bottom plate (Greiner Cat #781090) in 45 μl total volume of DMEM (PanEco, Cat #C420, Russia) or RPMI (PanEco, Cat #C330, Russia) with 10% FBS(HyClone Cat #SV30160.03). HEK293 were allowed to adhere overnight at 37° C., 5% CO2. 500× compounds solutions in DMSO (Sigma Cat #D2650) were prepared into Cmpnds plate (Diamond Well Plate, Axigen, Cat #P-384-120 SQ-C—S) and DMSO only control was included. 1 μl of 500× compounds (Cmpnds plate) was added to 49 μl of culture medium into Dilution plate (Diamond Well Plate, Axigen, Cat #P-384-120 SQ-C—S), mixed and then 5 μl of 10× compounds solutions were transferred to cells followed by centrifugation at 100 g for 1 min. Final DMSO concentration was 0.2%. After 3 days of incubation, 10 μl of 1× compounds were added to cells. After 7 days of incubation, 12 μl of CellTiter-Glo (Promega, CAT #G7572) were added to the cells, plate was centrifuged at 100 g for 1 min and luminescence signal was measured using Microplate Reader (CLARIOStar).
A general note: Cellular ATP, detected with luciferase, serves as a proxy for viable cell number.

Another series concerns MOLM-13. Put plainly: MOLM-13 Cellular Growth Inhibition Assay (CellTiter-Glo). Format: cell-based. To be noted: Homo sapiens, 168 h, MOLM-13 cells, 7 days of incubation. Here is the method: as §1
Series [2] is described as follows: HEK293 Cellular Growth Inhibition Assay (CellTiter-Glo). To be noted: human, HEK293 cells, 7 days of incubation. It counts as cell-based. Here is the method:
as §1

Turning to `CCS(=O)(=O)NC12CC(CN3CCC4(CC3)CN(c3ncnc5ccc(CC(F)(F)F)cc35)C4)(C1)C2` [Compound 74, N-(3-((2-(6-(2,2,2-trifluoroethyl)quinazolin-4-yl)-2,7-diazaspiro[3.5]nonan-7-yl)methyl)bicyclo[1.1.1]pentan-1-yl)ethanesulfonamide], the EC50 in series [1] was 1 to 5 µM. Also, the CC50 in the series on MV4-11 is more than 10 µM; with MOLM-13, 10 to 20 µM. In series [2], this compound yielded a CC50 at 7 days of 30 to 50 µM.

Turning to `CCS(=O)(=O)Nc1ccc(CN2CCC3(CC2)CN(c2ncnc4ccc(CC(F)(F)F)cc24)C3)cc1` [Compound 7, N-(4-((2-(6-(2,2,2-trifluoroethyl)quinazolin-4-yl)-2,7-diazaspiro[3.5]nonan-7-yl)methyl)phenyl)ethanesulfonamide], the EC50 in series [1] was not above 0.075 µM. For the same compound, the CC50 in the series on MV4-11 is 1 to 2.5 µM; with MOLM-13, 1 to 5 µM. Moreover, the CC50 at 7 days in series [2] is 5 to 15 µM.

As to `CCS(=O)(=O)N[C@H]1CC[C@H](CN2CCC3(CC2)CN(c2ncnc4ccc(CCc5ccncc5)cc24)C3)CC1` [Compound 48, N-((1R,4R)-4-((2-(6-(2-(pyridin-4-yl)ethyl)quinazolin-4-yl)-2,7-diazaspiro[3.5]nonan-7-yl)methyl)cyclohexyl)ethanesulfonamide], in series [1], the EC50 is 0.5 to 1 µM. The CC50 is more than 10 µM in the series on MV4-11 and more than 20 µM in the series on MOLM-13. Moreover, the CC50 at 7 days in series [2] was 30 to 50 µM.

As to `CCS(=O)(=O)Nc1ccc(CN2CCC(Nc3ncnc4ccc(CC(F)(F)F)cc34)CC2)cc1` [Compound 36, N-(4-((4-((6-(2,2,2-trifluoroethyl)quinazolin-4-yl)amino)piperidin-1-yl)methyl)phenyl)ethanesulfonamide], the EC50 in series [1] fell in the range of 1 to 5 µM. Besides, the half-maximal cytotoxic concentration (CC50) with MV4-11 and with MOLM-13 was 5 to 10 µM in each case. The compound also displayed a CC50 at 7 days in series [2] of 15 to 30 µM.

For the compound `CCS(=O)(=O)N1Cc2ccc(CN3CCC4(CC3)CN(c3ncnc5ccc(CC(F)(F)F)cc35)C4)cc2C1` [Compound 94, 4-(7-((2-(ethylsulfonyl)isoindolin-5-yl)methyl)-2,7-diazaspiro[3.5]nonan-2-yl)-6-(2,2,2-trifluoroethyl)quinazoline], the EC50 in series [1] was 0.075 to 0.5 µM. In addition, the half-maximal cytotoxic concentration (CC50) with MV4-11 fell in the range of 2.5 to 5 µM; in the series with MOLM-13, 5 to 10 µM. In series [2], this compound came in with a CC50 at 7 days of 5 to 15 µM.

`FC(F)(F)Cc1ccc2ncnc(N3CC4(CCN(Cc5cccc6[nH]ccc56)CC4)C3)c2c1` [Compound 83, 4-(7-((1H-indol-4-yl)methyl)-2,7-diazaspiro[3.5]nonan-2-yl)-6-(2,2,2-trifluoroethyl)quinazoline]: the EC50 in series [1] is not above 0.075 µM. Besides, the CC50 with MV4-11 is 1 to 2.5 µM; in the series with MOLM-13, 5 to 10 µM. The CC50 at 7 days in series [2] fell in the range of 5 to 15 µM.

On to `O=C1COc2cc(CN3CCC4(CC3)CN(c3ncnc5ccc(CC(F)(F)F)cc35)C4)ccc2N1` [Compound 75, 7-((2-(6-(2,2,2-trifluoroethyl)quinazolin-4-yl)-2,7-diazaspiro[3.5]nonan-7-yl)methyl)-2H-benzo[b][1,4]oxazin-3(4H)-one], for which the EC50 in series [1] was 0.075 to 0.5 µM. Also, the CC50 in the series with MV4-11 lay in the range of 2.5 to 5 µM; in the series on MOLM-13, 1 to 5 µM. The CC50 at 7 days in series [2] lay within 15 to 30 µM.

With `CCS(=O)(=O)N[C@H]1CC[C@H](CN2CCC3(CC2)CN(c2ncnc4ccc(CCc5ccccc5)cc24)C3)CC1` [Compound 51, N-((1R,4R)-4-((2-(6-phenethylquinazolin-4-yl)-2,7-diazaspiro[3.5]nonan-7-yl)methyl)cyclohexyl)ethanesulfonamide], the EC50 in series [1] was 0.5 to 1 µM. Besides, the values for the CC50 in the series on MV4-11 and in the series on MOLM-13 were 2.5 to 5 µM and 5 to 10 µM, respectively. In series [2], this compound showed a CC50 at 7 days of 5 to 15 µM.

In the case of `CCS(=O)(=O)N[C@H]1CC[C@H](CN2CCC3(CC2)CN(c2ncnc4ccc(CCc5cccnc5)cc24)C3)CC1` [Compound 56, N-((1R,4R)-4-((2-(6-(2-(pyridin-3-yl)ethyl)quinazolin-4-yl)-2,7-diazaspiro[3.5]nonan-7-yl)methyl)cyclohexyl)ethanesulfonamide], in series [1], the EC50 is 0.5 to 1 µM. The CC50 with MV4-11 and with MOLM-13 was 5 to 10 µM in each case. In series [2], the half-maximal cytotoxic concentration (CC50) at 7 days was in the range of 15 to 30 µM.

As for `CCS(=O)(=O)N[C@H]1CC[C@H](CN2CCC3(CC2)CN(c2ncnc4ccc(CCc5cccc(F)c5)cc24)C3)CC1` [Compound 61, N-((1R,4R)-4-((2-(6-(3-fluorophenethyl)quinazolin-4-yl)-2,7-diazaspiro[3.5]nonan-7-yl)methyl)cyclohexyl)ethanesulfonamide], the EC50 in series [1] was 0.075 to 0.5 µM. The values for the CC50 in the series with MV4-11 and in the series with MOLM-13 were 1 to 2.5 µM and 1 to 5 µM, respectively. In addition, the CC50 at 7 days in series [2] was in the range of 5 to 15 µM.

`CCS(=O)(=O)Nc1cccc(CN2CC3(CCN(c4ncnc5ccc(CC(F)(F)F)cc45)CC3)C2)c1` [Compound 44, N-(3-((7-(6-(2,2,2-trifluoroethyl)quinazolin-4-yl)-2,7-diazaspiro[3.5]nonan-2-yl)methyl)phenyl)ethanesulfonamide]: the EC50 in series [1] was in the range of 0.5 to 1 µM. Besides, the CC50 in the series on MV4-11 lay within 1 to 2.5 µM; with MOLM-13 it was 5 to 10 µM. Further, the 50% cytotoxic concentration (CC50) at 7 days in series [2] lay within 5 to 15 µM.
